Source: US4435570A, “5-(Phenyl or benzyl amino)methyl-pyrrolo[2,3-d]pyrimidin-4-one” (Takeda Chemical Industries, Ltd., priority 1981, dated 1984)
≈ marks a conversion by molar mass, not a printed value.

Tests used:
[1] = system: L5178Y cells (tumor cells); experiment: Inhibitory effect upon the multiplication of tumor cells; format: cell-based; conditions: RPMI 1640 medium+10% fetal calf serum, 48 hours, 37° C.; for IC50: Mus musculus, read-out: ED50 (concentration giving a cell count of 50% of control)
Description: The inhibitory effect of compound (I) upon the multiplication of cells was detected using L5178Y cells (tumor cells) in RPMI 1640 medium+10% fetal calf serum for 48 hours at 37° C.
The result was expressed in the concentration of the drug giving a cell count of 50% (ED50) with the average number of cells for the control (not modicated) group on the 2nd day being taken as 100%.

[2] = system: rat liver tRNA-guanine transglycosidase; experiment: Intake of compound into tRNA (tRNA-guanine transglycosidase, [3H]guanine-labeled tRNA); format: biochemical; conditions: 0.02 OD260 of compound, 0.5 unit enzyme, 100 μl, 37° C., 17 hrs
Description: Intake of the compound of Example 1 into tRNA [^3 H]guanine-labeled tRNA* (8000 cpm), 70 mM Trishydrochloride, 60 mM magnesium chloride, 0.5 unit of rat liver tRNA-guanine transglycosidase and 0.02 OD260 of the compound of Example 1 were adjusted to 100 μl and reacted at 37° C. for 17 hrs. The reaction mixture was absorbed into a strip of Whatman 3 MM filter paper and washed three times with a 5% aqueous solution of trichloroacetic acid, once each with ethanol-ether (1:1) and ether. After drying, the paper strip was scanned with a toluenic scintillant.
* tRNA labeled with [^3 H] guanine in the first letter of its anticodon.
The 0.02 OD260 equivalent of the compound of Example 3 was adjusted to 100 μl and subjected to the same procedure as Experimental Example 1.

[3] = system: tRNA in the tumor cells (S-180 cancer-bearing mice); experiment: Intake of the radioactive compound into a tumor tissue (tRNA of tumor cells of S-180 cancer-bearing mice); format: in vivo; conditions: 100 mg (0.17 mCi)/kg, tail vein once, 24 hours after administration, S-180 i.p. ddN mice
Description: Intake of the radioactive compound of Example 2 into a tumor tissue
Using S-180 cancer-bearing mice (ddN mice, 10^7 tumor cells/mouse as transplanted i.p.), 100 mg (0.17 mCi)/kg of the radioactive compound of Example 2 was administered into the tail vein once. Twenty-four hours after administration, the animal was sacrificed and the tumor cells were taken out and the rate of takeup of the radioactive compound into tRNA in the tumor cells was determined. […] [Experimental method: N. Okada et al., Biochem., 19, 395 (1980)]

SMILES	IC50 [1] [µg/mL]	taken into tRNA [2] [%]	rate of takeup of the radioactive compound into tRNA in the tumor cells (tRNA substituted) [3] [%]	ED50 (concentration giving a cell count of 50% of control) [1] [µg/mL]
N=C(NCc1c[nH]c2nc(N)[nH]c(=O)c12)c1cc(I)c(O)c(I)c1 [Example 1, 2-amino-5-[α-(3,5-diiodo-4-hydroxy)phenyliminomethylamino]methylpyrrolo[2,3-d]pyrimidin-4-one]	20 (≈ 36.4 µM)	59		
N=C(NCc1c[nH]c2nc(N)[nH]c(=O)c12)c1cc(I)c(O)c(I)c1 [Example 2, radioactive 2-amino-5-[α-(3,5-diiodo-4-hydroxy)phenyliminomethylamino]methylpyrrolo[2,3-d]pyrimidin-4-one]			~100	
Nc1nc2[nH]cc(CNCc3ccc(I)cc3)c2c(=O)[nH]1 [Example 3, 2-amino-5-(p-iodobenzyl)aminomethylpyrrolo[2,3-d]pyrimidin-4-one]	35 (≈ 88.6 µM)	93		
Nc1nc2[nH]cc(CN[C@H]3C=C[C@H](O)[C@@H]3O)c2c(=O)[nH]1 [Q base, reference compound]				> 200
